Experimental data as given in patent US20250228953A1, “INTRACELLULAR TARGETING OF OLIGONUCLEOTIDES” (Entrada Therapeutics, Inc., priority 2021, published 2025).

Experiments:
[1] = as reported by Tien, cited from earlier work; for SASA, Empirical / SASA, Theoretical: et al.
[2] = amino acid hydrophobicity scale; cited from earlier work
[3] = test system: eGFP-654 transgene; assay: eGFP protein restoration in liver by ELISA; format: in vivo, mouse; settings: 1 week
Procedure: Experiments were performed to determine if GalNAc conjugation to PMO or PMO-EEV could improve liver efficacy of PMO or PMO-EEV in EGFP-654 mice (Sazani et al., Nat Biotechnol. 2002 December; 20(12):1228-33. doi: 10.1038/nbt759.) in a single dosing schedule. Mice (EGFP-654, n=3/group; one female and two male) were injected intravenously (IV) with saline as control and 20 mpk of PMO1 and PMO1-EEV1; 0.2, 2, and 20 mpk (all normalized based on PMO dose) GalNAc-PMO2 and GalNAc-PMO2-EEV1 via both intravenous (TV) and subcutaneous (SC) route of administration. Both the PMO1 and the PMO2 have the same sequence and can be conjugated to EEV at the 3′ end, however, they have different functional handles at 5′ end. […] Thus, PMO1 is used as a control to when exploring the GalNAc liver targeting effects of the PMO2 GalNAc conjugates. An overview of the study design is illustrated in FIG. 16.
eGFP-654 transgenic mouse. The eGFP-654 transgenic mouse line was generated previously for evaluating splice switching oligonucleotides (Sazani et al. 2002 Nat Biotech; JAX stock #027617). The eGFP-654 transgene was cloned under a hybrid promoter with a cytomegalovirus early enhancer element, chicken beta-actin, and rabbit beta-globin, yielding widespread expression throughout the body. […]
eGFP relative protein analysis by […] (ELISA). […] Concentration was measured using a bicinchoninic acid (BCA) assay according to the manufacturer's protocol (Pierce BCA Protein Assay Kit 23227), diluting with the lysis buffer as needed. […] Sample eGFP levels were analyzed using enzyme-linked immunosorbent assay (ELISA) analysis with Abcam GFP ELISA kit (ab171581) according to the manufacturer's protocol. Sample eGFP levels were interpolated using the standard curve with the ELISA kit and reported as mass of eGFP detected (as measured by ELISA) per mass of protein content in the tissue lysate (as measured by BCA assay). the pg/mL of protein detected in each sample divided by the total protein concentration of lysates in ug/ml. […]

Molecule	SASA, Empirical [1]	SASA, Theoretical [1]	SASA, Miller et al. (1987) [1]	SASA, Rose et al. (1985) [1]	Hydrophobicity, Eisenberg and Weiss [2]	Hydrophobicity, Engleman et al. [2]	Hydrophobicity, Janin [2]	Hydrophobicity, Kyrie and Doolittle [2]	fold enhancement of efficacy compared to PMO1 ([3]; liver eGFP, 20 mpk IV)	fold enhancement of efficacy compared to PMO1-EEV1 ([3]; liver eGFP, 20 mpk IV)	eGFP protein restoration, different EEVs / GalNAc ligands conjugated to GalNAc-PMO2 constructs ([3]; liver, 20 mpk PMO equivalent IV)
C[C@@H](O)[C@H](N)C(=O)O [Thr, Threonine]	163.0 Å^2	172.0 Å^2	146.0 Å^2	152.5 Å^2	−0.18	1.2	−0.2	−0.7	–	–	–
N=C(N)NCCC[C@H](N)C(=O)O [Arginine, arginine]	265.0 Å^2	274.0 Å^2	241.0 Å^2	256.0 Å^2	–	–	–	–	–	–	–
NCC(=O)O [Gly, Glycine]	97.0 Å^2	104.0 Å^2	85.0 Å^2	88.1 Å^2	–	–	–	–	–	–	–
CC[C@H](C)[C@H](N)C(=O)O [Ile, Isoleucine]	195.0 Å^2	197.0 Å^2	182.0 Å^2	181.0 Å^2	0.73	3.1	0.7	4.5	–	–	–
N[C@@H](CO)C(=O)O [Ser, Serine]	143.0 Å^2	155.0 Å^2	122.0 Å^2	129.8 Å^2	−0.26	0.6	−0.1	−0.8	–	–	–
N[C@@H](Cc1c[nH]cn1)C(=O)O [His, Histidine]	216.0 Å^2	224.0 Å^2	194.0 Å^2	202.5 Å^2	−0.40	−3.0	−0.1	−3.2	–	–	–
PMO3-GalNAc-EEV1: "EEV1 was reacted with compound PMO1-Lys(BCN) with the following sequence (5′-GCT ATT ACC TTA ACC CAG-3′)"; "GalNAc-N3 was then reacted with PMO1-Lys(BCN)-EEV1" (DNA GCTATTACCTTAACCCAG; all phosphorodiamidate morpholino (PMO); PMO with Lys(BCN) linker bearing GalNAc and EEV1 cell-penetrating peptide)	–	–	–	–	–	–	–	–	14 fold	8.9 fold	–
Cyclo(FGFRRRRQ)-PEG12-OH (cyclo(FGFRRRRQ); also: PEG12-OH attached, position not clear) [EEV6]	–	–	–	–	–	–	–	–	–	–	highest eGFP protein restoration
N[C@@H](CC(=O)O)C(=O)O [Asp, Aspartic acid]	187.0 Å^2	193.0 Å^2	151.0 Å^2	158.7 Å^2	−0.72	−9.2	−0.6	−3.5	–	–	–
N=C(N)NCCC[C@H](N)C(=O)O [Arg, Arginine]	–	–	–	–	−1.80	−12.3	−1.4	−4.5	–	–	–
N[C@@H](Cc1c[nH]c2ccccc12)C(=O)O [Trp, Tryptophan]	264.0 Å^2	285.0 Å^2	259.0 Å^2	266.3 Å^2	0.37	1.9	0.3	−0.9	–	–	–
N[C@@H](CCC(=O)O)C(=O)O [Glu, Glutamic acid]	214.0 Å^2	–	183.0 Å^2	186.2 Å^2	−0.62	−8.2	−0.7	−3.5	–	–	–
N[C@@H](Cc1ccc(O)cc1)C(=O)O [Tyr, Tyrosine]	255.0 Å^2	263.0 Å^2	229.0 Å^2	236.8 Å^2	0.02	−0.7	−0.4	−1.3	–	–	–
CSCC[C@H](N)C(=O)O [Met, Methionine]	203.0 Å^2	224.0 Å^2	204.0 Å^2	203.4 Å^2	0.26	3.4	0.4	1.9	–	–	–
N[C@@H](Cc1ccccc1)C(=O)O [Phe, Phenylalanine]	228.0 Å^2	240.0 Å^2	218.0 Å^2	222.8 Å^2	0.61	3.7	0.5	2.8	–	–	–
NCCCC[C@H](N)C(=O)O [Lys, Lysine]	230.0 Å^2	236.0 Å^2	211.0 Å^2	225.8 Å^2	−1.10	−8.8	−1.8	−3.9	–	–	–
NC(=O)C[C@H](N)C(=O)O [Asn, Asparagine]	187.0 Å^2	195.0 Å^2	158.0 Å^2	165.5 Å^2	−0.64	−4.8	−0.5	−3.5	–	–	–
O=C(O)[C@@H]1CCCN1 [Pro, Proline]	154.0 Å^2	–	143.0 Å^2	146.8 Å^2	–	–	–	–	–	–	–
C[C@H](N)C(=O)O [Ala, Alanine]	121.0 Å^2	129.0 Å^2	113.0 Å^2	118.1 Å^2	0.25	1.6	0.3	1.8	–	–	–
N[C@@H](CS)C(=O)O [Cys, Cysteine]	148.0 Å^2	167.0 Å^2	140.0 Å^2	146.1 Å^2	0.04	2.0	0.9	2.5	–	–	–
CC(C)[C@H](N)C(=O)O [Val, Valine]	165.0 Å^2	174.0 Å^2	160.0 Å^2	164.5 Å^2	0.54	2.6	0.6	4.2	–	–	–
